Measured values reported in paper PMC4890880 (ACS infectious diseases, 2016).
Read-outs that look alike come from different tables or passages of the source.

Key:
HepG2-A16-CD81EGFP cells [1] = assay: cells; details: Homo sapiens, HepG2, read-out: % inhibition
[2] = system: Plasmodium berghei (Pb-Luc) exoerythrocytic-stage parasites; assay: microbe, parasite or virus in culture
HepG2-A16-CD81EGFP cells [3] = details: human, 50 uM
[4] = read-out: Inhibition% @ 50 uM rep1
[5] = read-out: Inhibition% @ 50 uM rep2

SMILES	inhibition at 50 µM (HepG2-A16-CD81EGFP cells [1]) [%]	inhibition at 50 µM [2, 4] [%]	inhibition at 50 µM [2, 5] [%]	HepG2 Tox% @ 50 uM rep1 (HepG2-A16-CD81EGFP cells [3]) [%]	HepG2 Tox% @ 50 uM rep2 (HepG2-A16-CD81EGFP cells [3]) [%]
CCOc1cc2c(cc1OCC)C(c1cc(Cl)c(O)c(OCC)c1)NCC2 (centres unmarked) [MMV000481]	20.4	73	75	20	–
CCN(CC)c1cc(C)c2cc(NC(=O)c3cccc(OC)c3)ccc2n1 [MMV000498]	99.5	104	106	100	101
CCc1ccc(Nc2cc(C)c3ccc(O)cc3n2)cc1 [MMV000570]	98.1	103	105	–	100
COc1ccc(Nc2nc(NCc3ccccc3)c3ccccc3n2)cc1 [MMV000963]	99.3	103	106	–	100
CCOc1cccc2sc(N(Cc3cccnc3)C(=O)C3CCCCC3)nc12 [MMV001230]	97.3	102	103	–	99
Cc1cccc(N2C(=O)C3C(C2=O)C2(c4ccccc4)C(=O)C3(c3ccccc3)C(c3ccc4c(c3)OCO4)=C2c2ccc3c(c2)OCO3)c1 (centres unmarked) [MMV007228]	-4.28	57	57	–	–
Clc1ccc2c(N3CCCC3)ccnc2c1 [MMV007363]	39.1	91	94	–	–
Cc1ccccc1OCCSc1nc2ccc(NC(=O)c3cccs3)cc2s1 [MMV007396]	37.1	103	104	–	–
COc1cc2c3cc1Oc1c(OC)c(OC)cc4c1C(Cc1ccc(O)c(c1)Oc1ccc(cc1)CC3N(C)CC2)N(C)CC4 (centres unmarked) [MMV007474]	99.3	104	104	–	–
COc1ccc(CCNC(=O)c2cc(S(=O)(=O)N3CC(C)CC(C)C3)ccc2Sc2ccc(F)cc2)cc1OC (centres unmarked) [MMV007557]	-11.7	19	15	-12	–
O=C(Nc1ccc(C23CC4CC(CC(c5ccccc5)(C4)C2)C3)cc1)c1cccs1 [MMV007574]	83.6	103	103	–	–
Cc1ccccc1OCCSc1nc2ccc(NC(=O)c3ccccc3)cc2s1 [MMV007577]	67.4	103	103	–	–
CCCCc1c(CCC)c(=N)c2ccccc2n1C [MMV007764]	83.9	103	103	–	–
CCOc1ccccc1NC(=O)CN1CCN(C(=O)c2ccco2)CC1 [MMV007791]	-15	16	43	–	–
COc1ccc2nc(C)cc(Nc3ccc(Cl)cc3)c2c1 [MMV007875]	94.8	99	101	–	99
CCCCN(CCCC)S(=O)(=O)c1ccc(NC(=O)c2ccco2)cc1 [MMV007881]	94.7	98	99	–	–
CN1C=C(c2ccc3ccccc3n2)C(c2c[nH]c3ccccc23)c2ccccc21 (centres unmarked) [MMV008160]	91.2	103	104	–	–
COc1cc(OC)cc(N2C(=O)N(Cc3ccc(C(C)(C)C)cc3)c3ccccc3S2(=O)=O)c1 [MMV008173]	-9.98	78	88	–	–
COc1ccc(C2C(C(=O)Nc3cccc(OC)c3)c3ccccc3C(=O)N2C2CCCCC2)cc1 (centres unmarked) [MMV008455]	28	94	92	–	–
CCCn1c(=N)c(C(=O)NC2CCCCC2)cc2c(=O)n3cccc(C)c3nc21 [MMV008829]	-21	54	45	–	–
CC1CCN(Cc2c(O)ccc3cc(-c4nc5ccccc5s4)c(=O)oc23)CC1 [MMV009127]	-10.1	75	76	–	–
COc1cccc(Nc2nc(N)c3ccccc3n2)c1 [MMV019199]	88.3	98	99	–	–
COc1ccc(-c2cn3c(C(=O)Nc4ccccc4Cl)c(-c4ccccc4)c4c3n2CCCC4)cc1 [MMV020403]	52.5	102	103	–	–
Nc1nc(Nc2cccc(F)c2)nc2ccccc12 [MMV080034]	81.8	102	103	–	–
Cc1cc(N2CCCC2)nc(Nc2ccc(NC(=O)CCc3ccccc3)cc2)n1 [MMV396669]	96.9	103	103	–	–
N=c1n(CCN2CCCCC2)c2ccccc2n1CC(=O)c1ccc(Cl)c(Cl)c1 [MMV396723]	96.7	101	102	–	–
Nc1ccn([C@@H]2O[C@H](CO)[C@@H](O)[C@H]2O)c(=O)n1 [MMV638723]	3.04	30	19	–	–
CCN(CC)CCCNc1ccnc2cc3ccccc3cc12 [MMV665783]	31.7	90	95	–	–

SMILES	inhibition at 50 µM (HepG2-A16-CD81EGFP cells [1]) [%]	inhibition at 50 µM [2, 4] [%]	inhibition at 50 µM [2, 5] [%]	HepG2 Tox% @ 50 uM rep1 (HepG2-A16-CD81EGFP cells [3]) [%]	HepG2 Tox% @ 50 uM rep2 (HepG2-A16-CD81EGFP cells [3]) [%]
O=c1cc(NC2CCN(CCCc3ccccc3)CC2)c2cc(Cl)ccc2o1 [MMV665786]	80.6	100	103	–	–
CCCCOC(=O)c1ccc(Nc2cc(C)nc3ccc(OC)cc23)cc1 [MMV665797]	95.1	100	101	–	–
Oc1ccc(Br)cc1CN1CCN(Cc2ccc(Cl)cc2)CC1 [MMV665809]	93.9	103	103	–	–
O=C(Nc1cccc(C2=NCCN2)c1)Nc1cccc(C2=NCCN2)c1 [MMV665810]	48.2	61	83	–	–
CCc1ccc(CNCC(O)c2ccccc2)cc1 (centres unmarked) [MMV665812]	94.8	98	99	–	–
Cn1c(C(=O)c2cccc3ccccc23)nc2ccccc21 [MMV665824]	35.6	96	98	–	–
COc1ccc(C=C2SC(Nc3ccccc3)=NC2=O)cc1 [MMV665836]	83.2	103	103	–	–
CCOc1c(Cl)cc(CNC(C)C(O)c2ccccc2)cc1OC (centres unmarked) [MMV665857]	98.7	102	103	–	–
Cn1c(=O)n(C)c2cc(CNCCNc3ccnc4cc(Cl)ccc34)ccc21 [MMV665875]	45.3	92	92	–	–
COc1ccc(CNC(=O)c2cc3c(=O)n4ccccc4nc3n(CCc3ccccc3)c2=N)cc1 [MMV665881]	1.19	68	76	–	–
COc1cc(C(=O)Nc2ccc(-c3nc4ccccc4[nH]3)cc2)cc(OC)c1OC [MMV665898]	69.9	99	101	–	–
COc1ccc(C(=O)C2CC2c2ccc(Cl)cc2)cc1 (centres unmarked) [MMV665924]	38.1	79	83	–	–
O=C(CCl)NCCOc1ccc(Cl)cc1Cl [MMV665927]	91.7	100	99	–	–
COc1ccc(CN2CCN(Cc3ccccc3)CC2)c(O)c1 [MMV665944]	85.9	69	72	–	–
Oc1ccc(C(=C(Cl)Cl)c2ccc(O)cc2)cc1 [MMV665949]	87.2	98	99	–	–
O=C(Cc1ccccc1)NC(c1ccc(Cl)cc1)c1c(O)ccc2ccccc12 (centres unmarked) [MMV665972]	97.4	101	101	–	–
OC1CCCCC1C1(NC(=S)Nc2ccccc2)CCCCC1 (centres unmarked) [MMV665980]	82.2	104	104	–	–
CCCCCCc1cc(O)c2c3c(c(=O)oc2c1)CCC(C)C3 (centres unmarked) [MMV665987]	95.8	103	104	–	–
Cc1nc2ccccc2c(O)c1CC=C(Cl)Cl [MMV665994]	31.7	100	102	–	–
COc1ccc(C(=O)NC(c2ccccc2Cl)c2cc(Cl)c3cccnc3c2O)cc1 (centres unmarked) [MMV666022]	99.5	103	104	–	–
OC(Cn1nnc2ccccc21)Cn1c2ccc(Br)cc2c2cc(Br)ccc21 (centres unmarked) [MMV666025]	43.6	99	97	–	–
COc1ccc(CN2CCCC(C(=O)c3ccc(C(F)(F)F)cc3)C2)c(O)c1 (centres unmarked) [MMV666060]	94.3	104	104	–	–
O=C(NC1CCCCC1)C(c1cccs1)N(CCc1ccccc1)C(=O)c1ccco1 (centres unmarked) [MMV666106]	76.6	102	103	–	–
CCOC(=O)C1(Cc2ccccc2)CCN(Cc2cccc(OC)c2O)CC1 [MMV666109]	79	99	100	–	–
CCCCCCc1cc2cc(-c3nc4ccccc4[nH]3)c(=Nc3ccccc3C)oc2cc1O [MMV666597]	85.4	102	103	–	–
CCCCCCc1cc2cc(-c3csc(C=Cc4ccccc4)n3)c(=O)oc2cc1O [MMV666692]	99.5	104	104	–	–
COC(=O)c1ccc(Cl)c2c1C1C=CCC1C(c1cccc3ccccc13)N2 (centres unmarked) [MMV667489]	61.4	97	99	–	–
